# Data taken from PMC5702617, “Novel peptide probes to assess the tensional state of fibronectin fibers in cancer” (Nature Communications, 2017).
# Where two headings read alike, the source gives them in different places.
# Experiments:
# [1] = In vitro plasma stability; assay type: in vitro ADME, human; details: RP-HPLC, means from three experiments; for stability in human blood plasma: 37°C
# Protocol: The stability of peptides in blood is often limited as they are rapidly cleaved by catalytic enzymes found in tissue and blood, resulting in a short biological half-life. […] To verify whether the FnBPA5 peptide can be used for in vivo applications, we next performed a plasma stability test. The metabolic stability of the peptide radiotracer ^111In-FnBPA5 was tested in vitro by incubating the radiolabeled FnBPA5 at 37°C with human blood plasma, or water as control. The unbound peptide fraction was separated from the plasma proteins at different time points (0, 1, 24, 48, and 72 h) and was analyzed by reversed-phase high-pressure liquid chromatography (RP-HPLC).
# After that, the samples were filtrated using a Thomson Single StEP Filter vial 0.45 μm PVDF (Thomson Instrument Company, Oceanside, USA) and the supernatant was analyzed by reversed-phase HPLC (Varian Prostar HPLC System, SpectraLab Scientific Inc., Canada) using a D-Bio Discovery Wide Pore C18 column (25 cm × 4.6 mm; 5 μm).
# [2] = Biodistribution in PC-3 tumor grafted mice; assay type: in vivo, mouse; details: female, CD1 nude, mouse, in vivo, iv, 150 kBq (2.4 nmol), total radioactivity, PC-3 grafted mice, i.v. 150 kBq (2.4 nmol), mean ± SD, n = 4; for tissue to tissue ratio at 1 h: 1 h p.i.; for tissue to tissue ratio at 4 h: 4 h p.i.; for tissue to tissue ratio at 24 h: 24 h p.i.; for tissue to tissue ratio at 96 h: 96 h p.i.
# Protocol: (§1) Experiments were performed 3–4 weeks after inoculation.
# (§2) For the biodistribution experiments, PC-3 tumor grafted mice were injected into the tail vein with 150 kBq ^111In-FnBPA5 or ^111In-scrambled FnBPA5 (2.4 nmol, 100 µL PBS). For each peptide, groups of four mice were sacrificed at 1, 4, 24, and 96 h post injection. Blocking experiment (n = 4) was performed by injection of an excess of peptide (100 µg, 24 nmol in 100 µL PBS) directly before the administration of the corresponding radiolabeled peptide. The organs were collected, weighed and counted for activity with a γ counter (Packard Cobra II Auto, Gamma, PerkinElmer AG, Schwerzenbach, Switzerland) 4 h p.i. The results were expressed as a percentage of injected activity per gram of tissue (% IA per g tissue). The Student's t test analyses were considered as type 3 (two sample unequal variance) and statistical significance was assumed for p-values smaller than 0.05.
# [3] = tested on: PC-3-bearing mice; assay: Biodistribution in PC-3 tumor grafted mice; assay type: in vivo, mouse; details: PC-3 grafted mice, i.v. 150 kBq (2.4 nmol, 100 µL PBS), γ counter, mean ± SD, n = 4
# Protocol: as §1, §2
# [4] = tested on: PC-3-bearing mice; assay: In vivo blocking experiment in PC-3 tumor grafted mice; set-up: species or system mouse
# Protocol: as §2
# [5] = tested on: PC-3-bearing mice; assay: SPECT/CT imaging of PC-3-bearing mice; assay type: in vivo, mouse
# Protocol: Thirty-three days from the inoculation of the tumor cells, the mice were intravenously injected with ~15 MBq ^111In-FnBPA5 resp. ^111In-scrambled FnBPA5-NODAGA (2.4 nmol, 100 µL PBS) into the tail vein. […] The images were reconstituted and processed with InVivoScope® software (Bioscan Inc., Washington DC, USA).
# [6] = read-out: Tumor-to-kidney ratio
# [7] = 10-fold excess of unlabeled FnBPA5 (24 nmol) pre-injected, 4 h p.i.
# [8] = 4h p.i. blocking: corresponding unlabeled peptide (24 nmol) i.v. directly before the radiolabeled peptide, PC-3 grafted mice, mean ± SD, n = 4
smiles,measurement,setting,value
"CC[C@H](C)[C@H](NC(=O)CNC(=O)[C@H](CCCCN)NC(=O)[C@@H](NC(=O)[C@H](CO)NC(=O)[C@H](CCC(=O)O)NC(=O)[C@H](CCC(=O)O)NC(=O)[C@H](CC(=O)O)NC(=O)[C@H](Cc1ccccc1)NC(=O)[C@H](CCC(=O)O)NC(=O)[C@@H](NC(=O)[C@H](CC(C)C)NC(=O)[C@H](CC(N)=O)NC(=O)[C@H](CO)NC(=O)[C@H](CCC(=O)O)NC(=O)[C@@H](NC(=O)[C@@H](NC(=O)[C@@H](NC(=O)[C@H](CCC(N)=O)NC(=O)CNC(=O)CNC(=O)CNC(=O)[C@@H](N)CSC1CC(=O)N(CCNC(=O)CCC(C(=O)O)N2CCN(CC(=O)O)CCN(CC(=O)O)CC2)C1=O)C(C)C)[C@@H](C)O)[C@@H](C)O)C(C)C)[C@@H](C)O)C(=O)N[C@H](C(=O)N[C@H](C(=O)NCC(=O)N[C@@H](C)C(=O)N[C@H](C(=O)N[C@@H](CO)C(=O)N[C@@H](CC(=O)O)C(=O)N[C@@H](Cc1c[nH]cn1)C(=O)N[C@H](C(=O)N[C@H](C(=O)N[C@H](C(=O)N[C@@H](CCC(=O)O)C(=O)N[C@@H](CC(=O)O)C(=O)N[C@H](C(=O)N[C@@H](CCCCN)C(=O)O)[C@@H](C)O)C(C)C)[C@@H](C)O)[C@@H](C)O)C(C)C)[C@@H](C)O)C(C)C (some centres unmarked) [111In-FnBPA5, metal not drawn]",stability in human blood plasma,[1]; 1 hour time point,high stability
same,stability in human blood plasma,[1]; later time point,very high stability
same,fraction intact in human blood plasma,"[1]; filtered fresh human blood plasma, 37 °C, 72 h, 12 MBq",80%
same,remaining at 72 h,"[1]; filtered fresh human blood plasma, 37 °C, 72 h, 12 MBq, read-out: fraction intact in human blood plasma",~80%
same,tissue to tissue ratio at 1 h,[2]; read-out: Tumor-to-blood ratio,3.05 ± 1.65
same,tissue to tissue ratio at 1 h,[2]; [6],0.03
same,tissue to tissue ratio at 1 h,[2]; read-out: Tumor-to-liver ratio,0.66 ± 0.22
same,tissue to tissue ratio at 4 h,[2]; read-out: Tumor-to-blood ratio,9.68 ± 1.83
same,tissue to tissue ratio at 4 h,[2]; [6],0.03
same,tissue to tissue ratio at 4 h,[2]; read-out: Tumor-to-liver ratio,1.18 ± 0.08
same,tissue to tissue ratio at 24 h,[2]; read-out: Tumor-to-blood ratio,23.9 ± 2.52
same,tissue to tissue ratio at 24 h,[2]; [6],0.04
same,tissue to tissue ratio at 24 h,[2]; read-out: Tumor-to-liver ratio,2.21 ± 0.25
same,tissue to tissue ratio at 96 h,[2]; read-out: Tumor-to-blood ratio,34 ± 18.4
same,tissue to tissue ratio at 96 h,[2]; [6],0.05 ± 0.02
same,tissue to tissue ratio at 96 h,[2]; read-out: Tumor-to-liver ratio,2.11 ± 0.82
same,"Biodistribution, Blood",[3]; 1 h p.i.,1.81 ± 0.62 IA% / g
same,"Biodistribution, Bone",[3]; 1 h p.i.,1.85 ± 0.21 IA% / g
same,"Biodistribution, Heart",[3]; 1 h p.i.,1.76 ± 0.51 IA% / g
same,"Biodistribution, Intestines",[3]; 1 h p.i.,2.27 ± 0.33 IA% / g
same,"Biodistribution, Kidneys",[3]; 1 h p.i.,140.58 ± 18.10 IA% / g
same,"Biodistribution, Liver",[3]; 1 h p.i.,7.52 ± 1.50 IA% / g
same,"Biodistribution, Lung",[3]; 1 h p.i.,2.88 ± 0.64 IA% / g
same,"Biodistribution, Muscle",[3]; 1 h p.i.,0.57 ± 0.07 IA% / g
same,"Biodistribution, Pancreas",[3]; 1 h p.i.,2.58 ± 1.27 IA% / g
same,"Biodistribution, Spleen",[3]; 1 h p.i.,7.01 ± 1.23 IA% / g
same,"Biodistribution, Stomach",[3]; 1 h p.i.,3.07 ± 0.39 IA% / g
same,"Biodistribution, Blood",[3]; 4 h p.i.,0.48 ± 0.08 IA% / g
same,"Biodistribution, Bone",[3]; 4 h p.i.,1.32 ± 0.26 IA% / g
same,"Biodistribution, Heart",[3]; 4 h p.i.,0.91 ± 0.06 IA% / g
same,"Biodistribution, Intestines",[3]; 4 h p.i.,1.77 ± 0.12 IA% / g
same,"Biodistribution, Kidneys",[3]; 4 h p.i.,130.66 ± 10.32 IA% / g
same,"Biodistribution, Liver",[3]; 4 h p.i.,3.85 ± 0.16 IA% / g
same,"Biodistribution, Lung",[3]; 4 h p.i.,1.98 ± 0.12 IA% / g
same,"Biodistribution, Muscle",[3]; 4 h p.i.,0.50 ± 0.17 IA% / g
same,"Biodistribution, Pancreas",[3]; 4 h p.i.,2.31 ± 1.18 IA% / g
same,"Biodistribution, Spleen",[3]; 4 h p.i.,3.35 ± 0.33 IA% / g
same,"Biodistribution, Stomach",[3]; 4 h p.i.,2.46 ± 0.36 IA% / g
same,"Biodistribution, Tumor",[3]; 4 h p.i.,4.51 ± 0.15 IA% / g
same,"Biodistribution, Blood",[3]; 24 h p.i.,0.15 ± 0.008 IA% / g
same,"Biodistribution, Bone",[3]; 24 h p.i.,0.86 ± 0.117 IA% / g
same,"Biodistribution, Heart",[3]; 24 h p.i.,0.31 ± 0.025 IA% / g
same,"Biodistribution, Intestines",[3]; 24 h p.i.,0.57 ± 0.039 IA% / g
same,"Biodistribution, Kidneys",[3]; 24 h p.i.,92.36 ± 14.25 IA% / g
same,"Biodistribution, Liver",[3]; 24 h p.i.,1.64 ± 0.26 IA% / g
same,"Biodistribution, Lung",[3]; 24 h p.i.,1.05 ± 0.11 IA% / g
same,"Biodistribution, Muscle",[3]; 24 h p.i.,0.24 ± 0.034 IA% / g
same,"Biodistribution, Pancreas",[3]; 24 h p.i.,0.78 ± 0.47 IA% / g
same,"Biodistribution, Spleen",[3]; 24 h p.i.,1.38 ± 0.068 IA% / g
same,"Biodistribution, Stomach",[3]; 24 h p.i.,0.51 ± 0.15 IA% / g
same,"Biodistribution, Tumor",[3]; 24 h p.i.,3.59 ± 0.53 IA% / g
same,"Biodistribution, Blood",[3]; 96 h p.i.,0.06 ± 0.027 IA% / g
same,"Biodistribution, Bone",[3]; 96 h p.i.,0.50 ± 0.09 IA% / g
same,"Biodistribution, Heart",[3]; 96 h p.i.,0.14 ± 0.017 IA% / g
same,"Biodistribution, Intestines",[3]; 96 h p.i.,0.13 ± 0.02 IA% / g
same,"Biodistribution, Kidneys",[3]; 96 h p.i.,39.69 ± 4.79 IA% / g
same,"Biodistribution, Liver",[3]; 96 h p.i.,0.89 ± 0.12 IA% / g
same,"Biodistribution, Lung",[3]; 96 h p.i.,0.32 ± 0.038 IA% / g
same,"Biodistribution, Muscle",[3]; 96 h p.i.,0.095 ± 0.02 IA% / g
same,"Biodistribution, Pancreas",[3]; 96 h p.i.,0.18 ± 0.046 IA% / g
same,"Biodistribution, Spleen",[3]; 96 h p.i.,0.73 ± 0.417 IA% / g
same,"Biodistribution, Stomach",[3]; 96 h p.i.,0.31 ± 0.052 IA% / g
same,"Biodistribution, Tumor",[3]; 96 h p.i.,1.87 ± 0.773 IA% / g
same,effect of pre-injection of unlabeled peptide on accumulation,"[4]; 24 nmol unlabeled peptide pre-injected, 4 h p.i., Student's t test, n = 4",significant reduction
same,"blocking effect on uptake, liver",[4]; [7],−58.2%
same,"blocking effect on uptake, tumor tissue",[4]; [7],−35.6%
same,"Biodistribution with blocking, Blood",[4]; [8],0.29 ± 0.074 IA% / g
same,"Biodistribution with blocking, Bone",[4]; [8],0.73 ± 0.31 IA% / g
same,"Biodistribution with blocking, Heart",[4]; [8],0.37 ± 0.080 IA% / g
same,"Biodistribution with blocking, Intestines",[4]; [8],0.53 ± 0.137 IA% / g
same,"Biodistribution with blocking, Kidneys",[4]; [8],175.80 ± 32.48 IA% / g
same,"Biodistribution with blocking, Liver",[4]; [8],1.61 ± 0.56 IA% / g
same,"Biodistribution with blocking, Lung",[4]; [8],0.95 ± 0.317 IA% / g
same,"Biodistribution with blocking, Muscle",[4]; [8],0.20 ± 0.12 IA% / g
same,"Biodistribution with blocking, Pancreas",[4]; [8],0.96 ± 0.384 IA% / g
same,"Biodistribution with blocking, Spleen",[4]; [8],1.33 ± 0.402 IA% / g
same,"Biodistribution with blocking, Stomach",[4]; [8],1.13 ± 0.14 IA% / g
same,"Biodistribution with blocking, Tumor",[4]; [8],2.91 ± 0.70 IA% / g
same,SPECT/CT distribution,"[5]; ~15 MBq (2.4 nmol, 100 µL PBS) i.v., up to 96 h p.i.",mainly accumulated in the kidneys
same,SPECT/CT distribution after kidney removal,"[5]; ~15 MBq i.v., 96 h p.i., post mortem, kidneys removed","predominant uptake in the tumor, liver, and spleen"
